Columns and labels:
HepG2 cells [1] = assay: Dose-dependent gene-transcriptional activity (Affymetrix GeneChip U133A) in HepG2 cells treated for 7 days; type: cell-based; conditions: for Difference in EC50 or IC50 values between RRR-α-T and all-rac-α-T / Number of genes dose-dependently regulated: HepG2; for EC50: HepG2, 104 induced genes, read-out: Transcriptional induction potency EC50, Mean ± SD; for EC50 / IC50: 7 days, 0-300 μM α-tocopheryl acetate in the media; for IC50: HepG2, 111 repressed genes, read-out: Transcriptional repression potency IC50, Mean ± SD; for Number of genes dose-dependently regulated: of the 14500 genes on the Affymetrix GeneChip U133A
Method: (§1) HepG2 cells (ATCC HB-8065) were cultured in 6 cm dishes in DMEM medium (GIBCO-Invitrogen, Switzerland) with 10% NU serum™ (Becton Dickinson, Switzerland) containing 1% Pen/Strep and undetectable amounts of vitamin E (detection limit 20 nM). Vitamin E compounds were applied as the acetate derivatives: RRR-α-tocopheryl acetate (Sigma and DSM Nutritional Products Ltd., Switzerland; 99-99.5 weight %, determined by gas chromatography) and all-rac-α-tocopheryl acetate (DSM Nutritional Products Ltd, Kaiseraugst, Switzerland; 98.0-99.5 weight %, determined by gas chromatography) were dissolved in 100% ethanol to prepare stock solutions. Treatment media were prepared by the addition of RRR-α-tocopheryl acetate (RRR-α-Tac) or all-rac-α-tocopheryl acetate (all-rac-α-Tac) to the basic medium at the following final concentrations: 0 (ethanol only, 1% final concentration), 10, 30, 80 and 300 μM. Treatment media were aliquoted and stored at −20° C. The vitamin E acetate treatment was performed for 7 days during the logarithmic growth phase of the cells. All treatment media were exchanged for fresh media every 24 hours. This treatment strategy has been chosen in the attempt to keep vitamin E acetate concentrations stable over time and to reach steady state intracellular vitamin E concentrations at 7 days of supplementation. All treatments were performed in quadruplicate dishes.
Cells were washed three times with PBS and lyzed with RTL buffer (Qiagen, Basel, Switzerland). Total RNA isolation was performed using RNeasy mini spin columns (Qiagen) and DNase digested on the columns (RNase-Free DNase Set, Qiagen) according to the manufacturer's description. cRNA preparation and Affymetrix GeneChip (U133A) hybridization were performed as described.
Data processing was carried out using the RACE-A analysis tool (Roche Bioinformatics, Basel, Switzerland) as described. Briefly, the arrays were normalized against the mean of the total sum of Average Difference (AvgDiff) values across all arrays used. Mean Average Difference values (MeanAvgDiff) were calculated as the means of one experiment performed in quadruplicate. Possible outliers were identified using the procedure of Nalimov with a 95% confidence interval. Subsequently, mean change factors (Chgf) for each individual gene were calculated among the different treatment groups and control using pair wise comparisons, and statistical significance was assessed by Student's t-test with prior testing for the normal distribution of the data. Applicant selected for those genes showing a dose-dependent regulation by vitamin E, i.e. maximal MeanAvgDiff>10 combined with a significant (p<0.05) differential Chgf between the vitamin E supplemented groups and the control group. The analysis of the experimental data obtained upon stimulation/treatment of the cells with RRR-α-Tac or all-rac-α-Tac was performed independently from each other.
EC50 and IC50 values, respectively, were determined by applying the standard four parameter model [y=a+(b−a)/(1+(x/c)̂d)] using the XL-Fit Software 3.0 (IDBS Inc. Emeryville, USA), where y is the normalized gene expression, x is the concentration of RRR-α-tocopherol or all-rac-α-tocopherol in the media and c corresponds to the EC50 and IC50 values, respectively. The potency-ratios were calculated as following: EC50RRR-α-T/EC50all-rac-α-T and IC50RRR-α-T/IC50all-rac-α-T.

HepG2 cells [2] = assay: Cellular α-tocopherol concentrations in HepG2 cells (HPLC); type: cell-based; conditions: for Difference between the intracellular concentrations of RRR-α-T and all-rac-α-T: HepG2, 7 days; for Amount of free cellular vitamin E compared to control cells: HepG2, 7 days, 10, 30, 80 or 300 μM acetate in the media
Method: as §1
Adherent HepG2 cells were trypsinized, collected and washed three times with PBS containing 1% bovine serum albumin. Cells were saponified in a methanolic potassium hydroxide solution. The solution was diluted with 35% ethanol and extracted with hexane/toluene. α-Tocopheryl acetate and hydrolyzed α-tocopherols were quantified by isocratic HPLC analysis.

[3] = animal studies; cited from earlier work

SMILES: Cc1c(C)c2c(c(C)c1O)CCC(C)(CCCC(C)CCCC(C)CCCC(C)C)O2 (racemic) [all-rac-α-T, all-rac-α-tocopherol]
- Difference in EC50 or IC50 values between RRR-α-T and all-rac-α-T (HepG2 cells [1]): no statistically significant differences
- EC50 (HepG2 cells [1]): 14 ± 9.1 µM
- IC50 (HepG2 cells [1]): 6 ± 4.5 µM
- Number of genes dose-dependently regulated (HepG2 cells [1]): 215
- Difference between the intracellular concentrations of RRR-α-T and all-rac-α-T (HepG2 cells [2]): no significant difference
- Amount of free cellular vitamin E compared to control cells (HepG2 cells [2]): significantly increased

SMILES: Cc1c(C)c2c(c(C)c1O)CC[C@@](C)(CCC[C@H](C)CCC[C@H](C)CCCC(C)C)O2 [RRR-α-T, (2R,4′R,8′R)-α-tocopherol]
- Difference in EC50 or IC50 values between RRR-α-T and all-rac-α-T (HepG2 cells [1]): no statistically significant differences
- Potency ratio EC50RRR-α-T/EC50all-rac-α-T, Mean ± SD (HepG2 cells [1]; HepG2, 104 genes): 0.9 ± 0.6
- EC50 (HepG2 cells [1]): 18 ± 10.7 µM
- Potency ratio IC50RRR-α-T/IC50all-rac-α-T, Mean ± SD (HepG2 cells [1]; HepG2, 111 genes): 1.2 ± 0.7
- IC50 (HepG2 cells [1]): 6.4 ± 6.8 µM
- Overall biopotency factor (mean of all 215 potency ratios RRR-α-T to all-rac-α-T) (HepG2 cells [1]; HepG2, 215 genes): 1.05
- Potency ratio Overall, Mean ± SD (HepG2 cells [1]; HepG2, 215 genes): 1.05 ± 0.7
- Number of genes dose-dependently regulated (HepG2 cells [1]): 215
- Difference between the intracellular concentrations of RRR-α-T and all-rac-α-T (HepG2 cells [2]): no significant difference
- Amount of free cellular vitamin E compared to control cells (HepG2 cells [2]): significantly increased
- Biological potency relative to all-rac-α-T (times) [3]: 1.36

— patent US20080194417A1, “Method for Measuring and Comparing the Activity of Biologically Active Compounds” (priority 2005, published 2008)
